One data set has as its system DLD-1 BRCA2 (-/-). Kind of data set: Combined use with combination drug, matrix study, Bliss Independence model (Cell Titer Glo, 7 days). The data set is classed as cell-based. The method, then:
(§1) DLD-1 colorectal adenocarcinoma cells, DLD-1 BRCA2 (-/-) colorectal adenocarcinoma cells, SHP-77 human small cell lung cancer cells, NCI-H82 human small cell lung cancer cells, LNCAP prostate cancer cells, KURAMOCHI human ovarian cancer cells, A2780 human ovarian cancer cells, and NCI-H23 non-small cell lung cancer cells were cultured in a 1640 medium containing 10% fetal bovine serum. SKOV3 human ovarian cancer cells were cultured in a McCoy's 5A (modified) medium containing 10% fetal bovine serum. OVCAR3 ovarian cancer cells were cultured in a 1640 medium containing 20% fetal bovine serum and 10 µg/mL bovine insulin. MDA-MB-436 breast cancer cells (natural BRCA1 mutation) and A549 non-small cell lung cancer cells were cultured in a DMEM medium containing 10% fetal bovine serum. Capan-1 human pancreatic cancer cells (natural BRCA2 mutation) were cultured in an IMDM medium containing 20% fetal bovine serum. The cells were all cultured at 37 °C with 5% CO2. Cells at the logarithmic growth phase were available for the experiment.
(§2) 100 µL of the cell medium was added to rows A and H and columns 1 and 12 of a 96-well cell culture plate. Cultured cells were resuspended (adherent cells were digested with trypsin) and counted to give information on cell density and viability. The dilution ratio of the resuspended cells required for inoculating a fixed number of cells into 80 µL of the medium in each culture well was calculated based on the cell density information. After the resuspended cells were diluted with the corresponding medium, 80 µL of the diluted cells were transferred to columns 2-11 of rows B-G of a 96-well cell culture plate using an Eppendorf multi-channel pipette (60 wells in total for each plate). The cell culture plate was incubated overnight in an incubator at 37 °C with 5% CO2.
(§3) The test compound and the combination compound were dissolved in DMSO to give a 10 mM solution for later use. In the experiment, the compound was further diluted to the corresponding concentration according to the concentration designed in the experiment, and based on this concentration, serial gradient dilution was performed. Matrix study was performed at 8 or 7 dose concentrations of the test compound (the lowest dose concentration was 0, and other specific concentration values were shown in FIG. 1) and 7 or 8 dose concentrations of the combination compound (the lowest dose concentration was 0, and other specific concentration values were shown in FIG. 1). 10 µL of each of the diluted combination compound and test compound was added to the corresponding cell plate well, such that the final concentration of DMSO was 0.25%. The test compound and the cells were incubated in an incubator at 37 °C with 5% CO2 for another 7 days, Cell Titer Glo was added at 50 µL/well, and the luminescence value of each well was read using an Envision microplate reader.
(§4) The luminescence value of the well containing only the cell medium was taken as the background (RLUbackground, corresponding cell survival rate to be 0%), the cell well containing only 0.25% DMSO without the compound was taken as the maximum signal (RLUDMSO, corresponding cell survival rate to be 100%), and the luminescence values of the remaining wells containing cells and compounds at different concentrations were taken as RLUsample. The survival rate of each cell well was calculated as follows: Survival rate (%) = (RLUsample−RLUbackground)/(RLUDMSO−RLUbackground) × 100% [formula]
(§5) The interaction between drugs (synergistic, independent, or antagonistic) was statistically analyzed by the Bliss Independence model using Combenefit software (Bliss, C.I., Bacteriol. Rev., 1956, 20, 243-258). The model assumes that each drug acts independently. The theoretical expected action curve of the combination was calculated from the following equation: Bliss effect = effect A + effect B−effect A × effect B [formula] wherein effect A and effect B are the effects of drugs A and B alone at specific concentrations. […]

Another data set deals with OVCAR3. The data set is described as above. The format is cell-based. The method, then:
as §1, §2, §3, §4, §5

The next data set relates to A549. The data set is described as above. The format is cell-based. The method, then:
as §1, §2, §3, §4, §5

The test system of the next data set is DLD1. The data set is described as above. The format is cell-based. The conditions noted are these: combination with SN38 (Topoisomerase I inhibitor). Here is the method: as §1, §2, §3, §4, §5
A further data set concerns NCIH23. The data set is described as above. The data set is classed as cell-based. The method, then: as §1, §2, §3, §4, §5
The test system of another data set is MDA-MB-436. The data set is described as above. The format is cell-based. The method, then:
as §1, §2, §3, §4, §5

For data set [1], the system named is human breast cancer MDA-MB-436 cells. The experiment in a line: Efficacy of combined use with olaparib in MDA-MB-436 xenograft tumor model. Particulars: 30 mg/kg QD intragastric in combination with 10 mg/kg olaparib QD. The format is in vivo, NOD-SCID mice. From the text:
The anti-tumor activity of the sodium salt of compound I used in combination with olaparib (MCE, 136925) was studied using a MDA-MB-436 subcutaneous tumor model. 24 female NOD-SCID mice (6-7 weeks old, Beijing Vital River Laboratory Animal Technology Co., Ltd.) were subcutaneously inoculated with 1 × 10^7 human breast cancer MDA-MB-436 cells (natural BRCA1 mutation, Nanjing Cobioer). When the tumors grew to 80-120 mm^3, the mice were randomly divided into four groups with six mice per group: a first group treated with vehicle control (QD) by intragastric administration, a second group treated with a 30 mg/kg solution of the sodium salt of compound I (QD) by intragastric administration, a third group treated with a 10 mg/kg olaparib solution (QD) by intragastric administration, and a fourth group treated with a 30 mg/kg solution of the sodium salt of compound I (QD) by intragastric administration and a 10 mg/kg olaparib solution (QD) by intragastric administration. The vehicle of olaparib was a solution containing 10% DMSO, 50% 2-hydroxypropyl-β-cyclodextrin (Aladdin-F2223139, 60% aqueous solution), and 40% water, the vehicle of the sodium salt of compound I was 10% (w/v) Vitamin E TPGS (Hanhong Chemical-BH-GN0100619-22 1101) aqueous solution, and the vehicle of the vehicle control group was a mixture of the vehicle of olaparib and the vehicle of the sodium salt of compound I (mixed at a volume ratio of 1:1). Mice had free access to food and water throughout the experiment.
Tumor diameters were measured twice weekly using a vernier caliper. The tumor volume (V) was calculated using the following formula: V = 0.5a × b^2, wherein a and b represent the long diameter and short diameter of the tumor, respectively.
Mouse body weight was measured twice weekly.
Two way ANOVA was used to compare the differences in tumor growth trend among groups, and a significant difference was considered when p < 0.05.

[2] abbreviates: combination with AZD5305 (PARP inhibitor).
Setting [3] is: combination with Niraparib (PARP inhibitor).
Where [4] appears, read: combination with Olaparib (PARP inhibitor).
The mark [5] stands for this setting: combination with Talazoparib (PARP inhibitor).

Here are results for 1 molecule from EP4744665A1, “COMBINATION OF POLQ INHIBITOR COMPOUND AND ANTI-CANCER THERAPEUTIC AGENT OR RADIOTHERAPY” (Simcere Zaiming Pharmaceutical Co., Ltd., priority 2023, dated 2025).

For the molecule `COc1ccc(Cl)cc1-c1cc(C)ncc1C(=O)Nc1nc2ncc(-c3ccc(C#N)cc3)nc2s1.[Na]` [Sodium salt of compound I, Sodium Salt of 4-(5-Chloro-2-methoxyphenyl)-N-[6-(4-cyanophenyl)thiazolo[4,5-b]pyrazin-2-yl]-6-methylnicotinamide], the Combined effect result with DLD-1 BRCA2 (-/-) (setting [2]), in the data set with DLD-1 BRCA2 (-/-) (setting [3]), in the data set on OVCAR3 (combination with Carboplatin (Platinum derivative)), with OVCAR3 (setting [3]), in the data set with OVCAR3 (setting [4]) and with OVCAR3 (setting [5]) was “Synergistic” in each case. Moreover, the Combined effect entry with A549 (combination with Cisplatin (Platinum derivative)), in the data set on A549 (combination with Etoposide (Topoisomerase II inhibitor)), in the data set with DLD1, with NCIH23 (combination with RP3500 (ATR inhibitor)), in the data set with NCIH23 (setting [5]) and in the data set on MDA-MB-436 (setting [2]) was “Synergistic” each time. Moreover, the Combined effect entry with MDA-MB-436 (combination with AZD7648 (DNA-PK inhibitor)), in the data set with MDA-MB-436 (setting [3]) and in the data set on MDA-MB-436 (setting [4]) was “Synergistic” in each case. The “anti-tumor effect of combination with olaparib” value in data set [1] was “synergistic anti-tumor effect”. Besides, the tumor volume result in data set [1] (versus either single drug group) was “significantly lower”. Moreover, the safety entry in data set [1] (condition of mice, body weight) is given as “good safety”.
